How the values were obtained:
Type in all cases: cell-based, human
β-catenin in SiHa cells = assay: β-catenin degradation with cyclohexamide (western blot, pulse chase), SiHa; details: with cyclohexamide (CHX: 50 mg), ORM-Br
Description: (§1) A western blot analysis was conducted to determine the effect of ORM-Br on β-catenin degradation. […] Protein lysates were prepared and subjected to western blot analysis to ascertain the levels of protein of β-catenin in cyclohexamide-treated cells (FIG. 3A) and in ORM-Br and cyclohexamide-treated cells (FIG. 3B).

[1] = test system: E-cadherin and N-cadherin mRNA in cervical cancer cells; assay: qPCR of E-cadherin and N-cadherin; details: both cervical cancer cells, 18 hours
Description: RNA from cervical cancer cells was isolated using Qiagen kit and quantified using NanoDrop instrument 2000 (Thermo Scientific, Waltham, MA, USA). To analyze the expression of miR-200a in control and Br-ORM treated cells, 100 ng total RNA was reverse transcribed into cDNA using specific primers designed for miRNA analysis (Applied Biosystems, Foster City, CA, USA). The expression of this miRNAs was determined by qRT-PCR using the Taqman PCR master mixture and specific primers designed for detection of mature miRNAs (Applied Biosystems). The expression of miRNA was normalized with the expression of endogenous control, RNU6B.
Epithelial mesenchymal transition (EMT) is the basic characteristic of cancer cells in which epithelial cells undergo morphologic and molecular changes that transform the cells to mesenchymal, highly metastatic (invasive and motile), and drug-resistant phenotypes. […] The effect of Br-ORM treatment on various EMT markers in cervical cancer cells was evaluated. […] The effect of Br-ORM on expression of EMT markers in cervical cancer cells compared to untreated group by use of qPCR analysis was determined. […] Expression of E-cadherin in cervical cancer cells treated with Br-ORM (10 μM) for 18 hours was also determined by immunofluorescence and confocal microscopy. […]
FIG. 14. […] Closure of wound was determined and photographed using phase contrast microscopy. […]

β-catenin in CaSki cells = assay: β-catenin degradation with cyclohexamide (western blot, pulse chase), CaSki; details: ORM-Br
Description: as §1

SiHa cells = assay: Cell cycle analysis by flow cytometry, SiHa; details: 10 and 15 μM
Description: The effect of Br-ORM on cell cycle analysis was performed by flow cytometry as has described in the art. In brief, approximately 70% confluent cervical cancer cells were treated with Br-ORM (10 and 20 μM) for 24 hours. The cells were trypsinized and washed twice with ice-cold PBS (1×). The cell pellets were resuspended in 50 μL of ice cold PBS (1×) and 450 μL of cold methanol. The cells were washed twice with ice cold PBS (1×), suspended in 500 μL PBS, and incubated with 500 μL RNase (20 μg/mL final concentration) at 37° C. for 1 hour. The cells were chilled over ice for 10 minutes and stained with propidium iodide (50 μg/mL final concentration) for 1 hour and analyzed by flow cytometry (BD Accuri C6; Becton Dickinson, Mountain View, CA, USA). Data was analyzed by using Modfit software.
To examine the effect on cell cycle distribution, cervical cancer cells were treated with Br-ORM (10 and 15 μM) and analyzed by flow cytometry (FIG. 13F(i)-(ii)).

## COc1ccc2c(c1)OC(C)(C)C(c1ccc(Br)cc1)C2c1ccc(OCCN2CCCC2)cc1 (centres unmarked) [ORM-Br]
β-catenin in SiHa cells
  protein levels of β-catenin relative to cyclohexamide treatment: significant decrease in protein levels of β-catenin
[1]
  mRNA level of E-cadherin: significantly elevated
  mRNA level of N-cadherin: significantly reduced
β-catenin in CaSki cells
  protein levels of β-catenin relative to cyclohexamide treatment: significant decrease in protein levels of β-catenin
SiHa cells
  cell cycle distribution: arrested cell cycle progression of CaSki and SiHa cells at G1/S phase
